Data reported in patent US11345762B2, “Method for preparing liquid medium composition, and preparation device and kit therefor” (NISSAN CHEMICAL INDUSTRIES, LTD., priority 2015, dated 2022).

System: Human lung cancer cell line A549
Test: A549 cell proliferation suppressive test with anticancer agents in low adhesion plate (ATP, CellTiter-Glo)
Format: cell-based
Protocol: Deacylated gellan gum (KELCOGEL CG-LA, manufactured by Sansho Co., Ltd.) was suspended in ultra pure water (Milli-Q water) to 0.3% (w/v) or 0.75% (w/v), dissolved by stirring with heating at 90° C., and this aqueous solution was autoclave sterilized at 121° C. for 20 min. Using 0.3% solution, a medium composition was prepared by adding deacylated gellan gum (final concentration 0.015% (w/v)) to DMEM medium (manufactured by WAKO) containing 10% (v/v) fetal bovine serum. Fetal bovine serum was added at 10% (v/v) to a medium composition prepared in Example 7.
Human lung cancer cell line A549 (manufactured by DS PHARMA BIOMEDICAL) was seeded in the above-mentioned medium composition added with deacylated gellan gum (conventional method) or the medium composition of Example 7 at 14800 cells/mL, and dispensed to the wells of a 96 well flat bottom ultra-low adhesive surface microplate (Corning Incorporated manufactured by, #3474) at 135 μL per […]. As a negative control, A549 cells were suspended in the above-mentioned medium free of deacylated gellan gum and dispensed. Each plate was cultured in a static state in a CO2 incubator (37° C., 5% CO2). On day 1 of culture, medium compositions (conventional method and the production method of the present invention) containing each anticancer agent at 10-fold concentration and deacylated gellan gum (final concentration 0.015% (w/v)), and a medium composition containing each anticancer agent alone at 10-fold concentration (non-addition method), 15 μL each, was added to a final concentration of 0.001 to 30 μM, and culture was continued for 7 days. As the anticancer agent, Trametinib (manufactured by Santa Cruz, MEK inhibitor) and MK-2206 (manufactured by Santa Cruz, Akt inhibitor) were used. ATP reagent (150 μL, CellTiter-Glo™ Luminescent Cell Viability Assay, manufactured by Promega) was added to the culture media on days 5 and 8 and suspended therein, stood for about 10 min at room temperature, and the luminescence intensity (RLU value) was measured by FlexStation3 (manufactured by Molecular Devices), from which the luminescence with the medium alone was subtracted to measure the number of viable cells.

Compound: CC(=O)O[C@H]1C(=O)[C@@]2(C)[C@H]([C@H](OC(=O)c3ccccc3)[C@]3(O)C[C@H](OC(=O)[C@H](O)[C@@H](NC(=O)c4ccccc4)c4ccccc4)C(C)=C1C3(C)C)[C@]1(OC(C)=O)CO[C@@H]1C[C@@H]2O [Paclitaxel]
- % control of RLU value (ATP measurement, luminescence intensity) (A549, day 4 of static culture, 0.001 μM, conventional method): 98 % Control
- % control of RLU value (ATP measurement, luminescence intensity) (A549, day 4 of static culture, 0.001 μM, non-addition method): 112 % Control
- % control of RLU value (ATP measurement, luminescence intensity) (A549, day 4 of static culture, 0.001 μM, production method of present invention): 91 % Control
- % control of RLU value (ATP measurement, luminescence intensity) (A549, day 4 of static culture, 0.01 μM, conventional method): 31 % Control
- % control of RLU value (ATP measurement, luminescence intensity) (A549, day 4 of static culture, 0.01 μM, non-addition method): 57 % Control
- % control of RLU value (ATP measurement, luminescence intensity) (A549, day 4 of static culture, 0.01 μM, production method of present invention): 32 % Control
- % control of RLU value (ATP measurement, luminescence intensity) (A549, day 7 of static culture, 0.001 μM, conventional method): 90 % Control
- % control of RLU value (ATP measurement, luminescence intensity) (A549, day 7 of static culture, 0.001 μM, non-addition method): 116 % Control
- % control of RLU value (ATP measurement, luminescence intensity) (A549, day 7 of static culture, 0.001 μM, production method of present invention): 84 % Control
- % control of RLU value (ATP measurement, luminescence intensity) (A549, day 7 of static culture, 0.01 μM, conventional method): 12 % Control
- % control of RLU value (ATP measurement, luminescence intensity) (A549, day 7 of static culture, 0.01 μM, non-addition method): 49 % Control
- % control of RLU value (ATP measurement, luminescence intensity) (A549, day 7 of static culture, 0.01 μM, production method of present invention): 12 % Control

Compound: NC1(c2ccc(-c3nc4ccn5c(=O)[nH]nc5c4cc3-c3ccccc3)cc2)CCC1 [MK-2206]
- % control of RLU value (ATP measurement, luminescence intensity) (A549, day 4 of static culture, 0.03 μM, conventional method): 100 % Control
- % control of RLU value (ATP measurement, luminescence intensity) (A549, day 4 of static culture, 0.03 μM, non-addition method): 108 % Control
- % control of RLU value (ATP measurement, luminescence intensity) (A549, day 4 of static culture, 0.03 μM, production method of present invention): 85 % Control
- % control of RLU value (ATP measurement, luminescence intensity) (A549, day 4 of static culture, 0.1 μM, conventional method): 91 % Control
- % control of RLU value (ATP measurement, luminescence intensity) (A549, day 4 of static culture, 0.1 μM, non-addition method): 99 % Control
- % control of RLU value (ATP measurement, luminescence intensity) (A549, day 4 of static culture, 0.1 μM, production method of present invention): 74 % Control
- % control of RLU value (ATP measurement, luminescence intensity) (A549, day 4 of static culture, 0.3 μM, conventional method): 71 % Control
- % control of RLU value (ATP measurement, luminescence intensity) (A549, day 4 of static culture, 0.3 μM, non-addition method): 93 % Control
- % control of RLU value (ATP measurement, luminescence intensity) (A549, day 4 of static culture, 0.3 μM, production method of present invention): 60 % Control
- % control of RLU value (ATP measurement, luminescence intensity) (A549, day 4 of static culture, 1 μM, conventional method): 50 % Control
- % control of RLU value (ATP measurement, luminescence intensity) (A549, day 4 of static culture, 1 μM, non-addition method): 78 % Control
- % control of RLU value (ATP measurement, luminescence intensity) (A549, day 4 of static culture, 1 μM, production method of present invention): 43 % Control
- % control of RLU value (ATP measurement, luminescence intensity) (A549, day 4 of static culture, 3 μM, conventional method): 38 % Control
- % control of RLU value (ATP measurement, luminescence intensity) (A549, day 4 of static culture, 3 μM, non-addition method): 62 % Control
- % control of RLU value (ATP measurement, luminescence intensity) (A549, day 4 of static culture, 3 μM, production method of present invention): 33 % Control
- % control of RLU value (ATP measurement, luminescence intensity) (A549, day 7 of static culture, 0.03 μM, conventional method): 92 % Control
- % control of RLU value (ATP measurement, luminescence intensity) (A549, day 7 of static culture, 0.03 μM, non-addition method): 124 % Control
- % control of RLU value (ATP measurement, luminescence intensity) (A549, day 7 of static culture, 0.03 μM, production method of present invention): 80 % Control
- % control of RLU value (ATP measurement, luminescence intensity) (A549, day 7 of static culture, 0.1 μM, conventional method): 83 % Control
- % control of RLU value (ATP measurement, luminescence intensity) (A549, day 7 of static culture, 0.1 μM, non-addition method): 101 % Control
- % control of RLU value (ATP measurement, luminescence intensity) (A549, day 7 of static culture, 0.1 μM, production method of present invention): 69 % Control
- % control of RLU value (ATP measurement, luminescence intensity) (A549, day 7 of static culture, 0.3 μM, conventional method): 63 % Control
- % control of RLU value (ATP measurement, luminescence intensity) (A549, day 7 of static culture, 0.3 μM, non-addition method): 103 % Control
- % control of RLU value (ATP measurement, luminescence intensity) (A549, day 7 of static culture, 0.3 μM, production method of present invention): 54 % Control
- % control of RLU value (ATP measurement, luminescence intensity) (A549, day 7 of static culture, 1 μM, conventional method): 38 % Control
- % control of RLU value (ATP measurement, luminescence intensity) (A549, day 7 of static culture, 1 μM, non-addition method): 85 % Control
- % control of RLU value (ATP measurement, luminescence intensity) (A549, day 7 of static culture, 1 μM, production method of present invention): 34 % Control
- % control of RLU value (ATP measurement, luminescence intensity) (A549, day 7 of static culture, 3 μM, conventional method): 26 % Control
- % control of RLU value (ATP measurement, luminescence intensity) (A549, day 7 of static culture, 3 μM, non-addition method): 76 % Control
- % control of RLU value (ATP measurement, luminescence intensity) (A549, day 7 of static culture, 3 μM, production method of present invention): 21 % Control
- efficacy on A549 cell proliferation in the medium composition of the present invention (in words) (A549, medium composition of the present invention): strong efficacy
